# Results taken from US10414721B1, “Inhibitor of endocannabinoid cellular reuptake” (University of Bern, priority 2018, dated 2019).
# “Also recorded” adds a separate entry of the source.
# Key:
# AEA uptake in U937 cells = assay: AEA uptake inhibition in U937 cells; type: cell-based
# Protocol: Based on the natural product (2E,4E)-N-isobutylamidedodeca-2,4-dienamide from the medicinal plant E. purpurea as a starting point, a library of 634 of analogs and derivatives with varying alkyl chain length was synthesized, and structure of the head group moiety analyzed. All new derivatives were tested for AEA uptake inhibition in U937 cells using a high-content screening assay.
# All radioactivity-based AEA and 2-AG uptake and release assays performed in U937, and HMC-1 cells were carried out using two different assay formats as previously reported. AEA and 2-AG uptake assay in Neuro2a and primary mouse cortical neurons were performed with a different method disclosed in Chicca 2017.
# [1] = molecular target: fatty acid binding protein 5 (FABP5) (Homo sapiens, UniProt Q01469); assay: FABP5 binding
# fatty acid binding protein 5 (FABP5), sequence (Q01469 whole entry, species assumed): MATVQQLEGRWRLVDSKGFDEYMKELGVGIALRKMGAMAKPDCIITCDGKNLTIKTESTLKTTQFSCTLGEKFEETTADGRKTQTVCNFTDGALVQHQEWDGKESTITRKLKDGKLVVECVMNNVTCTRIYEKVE
# [2] = tested on: main EC degrading enzymes (FAAH, MAGL); assay: Stability towards endocannabinoid degrading enzymes; type: in vitro ADME
# Protocol: FAAH, ABHDs, MAGL and COX-2 activity assays were performed using cell homogenates, human recombinant enzymes and mouse, rat and pig brain homogenates as previously described.
# 45 CNS-related receptors = assay: CNS adverse drug reaction screening panel (CEREP); type: binding; details: including cannabinoid receptors
# Protocol: CB1 and CB2 receptor binding assays [^35S]GTPγS assays were performed as previously described. WOBE437 was profiled in more detail in an extended CNS adverse drug reaction screening panel (CEREP).
# C57BL6/N mice = assay: Holeboard (HB) test; type: in vivo, mouse; details: 3 mg/kg, 1 h post injection
# Protocol: WOBE437 was initially assessed in a battery of four individual tests typically associated with CB1 receptor activation in mice (nociception, locomotion, body temperature and cataleptic behavior), collectively referred to as the “tetrad”. Dose-response experiments identified 10 mg/kg as the lowest dose to elicit a moderate but complete tetrad in BALB/c mice upon intraperitoneal (i.p.) administration (FIGS. 3A-D). […] To assess whether the WOBE437-induced effects were CB1 receptor-mediated, mice were pre-treated with the selective antagonist/inverse agonist rimonabant (SR1). […] These experiments provided a proof-of-concept for the mechanism of action of WOBE437 as a novel “indirect CB1 receptor agonist”. In subsequent studies, the effects of WOBE437 in pain, inflammatory and anxiety models were investigated. […] Both effects were reversed by SR1.
# WOBE437 and RX-055 were tested in independent laboratories, in different mouse strains and in multiple (behavioral) models for cannabimimetic, analgesic, anti-inflammatory and anxiolytic-effects in wild-type and phenotypical CB1-KO mice as described in Chicca 2017.
# [3] = Hot plate test after oral administration; type: in vivo, mouse; details: male, BALB/c, mouse, in vivo; from effective doses 50 mg/kg p.o. vs 10 mg/kg i.p.; read-out: overall bioavailability compared to the i.p. administration route
# Protocol: (§1) Acute pain was evaluated 1 h after gavage administration of WOBE437, at 10, 25, 50 and 100 mg/kg in BALB/c mice. The test was performed using a clean 54-56° C. hot plate (Thermo Scientific, USA) with a Plexiglas cylinder. The latency to show the first nociceptive response (paw lick or foot shake) was measured. In order to evaluate CB1 receptor antagonism, 5 mg/kg of rimonabant (Pharmasery AG, Switzerland) was injected intraperitoneally (i.p.) (20 μL, in DMSO) 30 min before WOBE437 administration.
# BALB/c male mice = assay: Hot plate test after oral administration; type: in vivo, mouse
# Protocol: as §1
# BALB/c mice [4] = assay: Complete Freund's adjuvant induced monoarthritis; type: in vivo, mouse
# Protocol: BALB/c mice were anesthetized with xylazine/ketamine (5 and 10 mg/kg, respectively) and subsequently monoarthritis was induced by intra-articular injection of complete Freund's adjuvant (CFA, 40 μL; Sigma-Aldrich, St. Louis, USA) into the right knee joint. The inflammation was allowed to develop for 14 days prior to pharmacological treatments starting at day 15 for 1 or 3 days, respectively. Mechanical sensitivity (allodynia) and knee diameter (edema) were evaluated 1 h post treatment in the ipsilateral and contralateral knees. Articular sensitivity was evaluated using a digital algometer (Bioseb, USA). […] A cut-off force of 300 g was considered to avoid damage in the tissue. The measurements were done in triplicates and the average was considered for the statistical analysis. To evaluate the degree of inflammation, knee diameter was measured in both extremities using a digital micrometer (Mitutoyo, USA). WOBE437 was administered at doses of 2.5, 5 or 10 mg/kg, either as single dose or for 3 days treatment. To evaluate the involvement of CB1 and CB2 receptors, TRPV1 and PPARγ, rimonabant (5 mg/kg, CB1 receptor antagonist/inverse agonist), SR144528 (3 mg/kg, CB2 receptor antagonist/inverse agonist; Cayman Chemical, USA), capsazepine (5 mg/kg, TRPV1 antagonist; Tocris Bioscience, UK) and GW9662 (3 mg/kg, PPARγ antagonist; Tocris Bioscience, UK) were injected 30 min before WOBE437 administration. Indomethacin (5 mg/kg; Sigma-Aldrich, USA) was used as a reference drug (positive control). For all the compounds, dimethylsulfoxide (DMSO) was used as vehicle (20 μL, i.p.).
# BALB/c mice [5] = assay: Open field test in monoarthritic mice; type: in vivo, mouse
# Protocol: Potential motor changes were evaluated in an open field box (40×40×30 cm, Plexiglas). The mice were individually placed in the center and allowed to move freely for 5 min. The locomotion activity was recorded with the OpenFieldTest© and traveled distance was evaluated automatically. After every experiment, the box was cleaned with 70% ethanol to remove odors.
# major serine hydrolases = assay: Serine hydrolase activity in vivo; details: mouse
smiles,measurement,setting,value
"CCCCCCC/C=C/C=C/C(=O)NCCc1ccc(OC)c(OC)c1 [WOBE437, (2E,4E)-N-[2-(3,4-Dimethoxyphenyl)ethyl]dodeca-2,4-dienamide]",residual AEA and 2-AG reuptake upon treatment,AEA uptake in U937 cells,20-30%
same,selectivity for AEA uptake over FAAH / AEA hydrolysis,AEA uptake in U937 cells,1000 fold
same,IC50,"AEA uptake in U937 cells; Homo sapiens, U-937, U937 cells, 100 nM total AEA",10 ± 8 nM
same,"Hill slope, AEA uptake","AEA uptake in U937 cells; U937 cells, multiphase AEA uptake assay",−0.715
same,type of AEA uptake inhibition (Michaelis-Menten analysis),AEA uptake in U937 cells; intact U937 cells,competitive
same,reversibility of AEA uptake inhibition,AEA uptake in U937 cells; rapid dilution assay,reversible
same,binding to FABP5,[1],no binding
same,stability in the presence of the main EC degrading enzymes,[2],completely stable; also recorded: not affected by the hydrolytic activity of FAAH and MAGL
same,interaction with 45 CNS-related receptors,45 CNS-related receptors,did not exhibit any significant interaction
same,head dipping frequency,C57BL6/N mice,significantly increased
same,bioavailability,[3],20%
same,increase of pain threshold vs vehicle,BALB/c male mice; 50 mg/kg p.o.,61.7%
same,pain threshold (latency),"BALB/c male mice; 50 mg/kg p.o., vehicle 5.8±0.9 s",9.4 ± 1.9 s
same,pain threshold (latency),BALB/c male mice; 100 mg/kg p.o.,11.7 ± 2.6 s
same,ED50,"BALB/c male mice; Mus musculus, po, hot plate, read-out: estimated effective dose (ED50)",42.5 ± 3.9 mg/kg
same,minimum dose to significantly increase pain threshold,"BALB/c male mice; p.o., hot plate",50 mg/kg
same,antinociceptive effect after rimonabant pre-treatment,BALB/c male mice; rimonabant 5 mg/kg i.p.,completely abolished
same,"antiallodynia and antiinflammatory effects after rimonabant, SR144528 or GW9662 pre-treatment","BALB/c mice [4]; 10 mg/kg i.p., 3 days",fully abolished
same,reduction of inflammation (edema),"BALB/c mice [4]; 10 mg/kg i.p., 3 days",58%
same,reduction in allodynia,"BALB/c mice [4]; 10 mg/kg i.p., 3 days, as compared to contralateral knee",52%
same,knee diameter,"BALB/c mice [4]; 10 mg/kg i.p., 3 days, vehicle 6.5±0.9, contralateral 4.5±0.3",5.3±0.4 mm
same,allodynia after single dose,"BALB/c mice [4]; 10 mg/kg i.p., single dose",significantly decrease allodynia
same,antiallodynia effect after SR144528 (3 mg/kg) or capsazepine (5 mg/kg) pre-treatment,"BALB/c mice [4]; 10 mg/kg i.p., single dose",completely prevented
same,antiallodynia effect after rimonabant or GW9662 pre-treatment,"BALB/c mice [4]; 10 mg/kg i.p., single dose",did not block
same,allodynia and edema,BALB/c mice [4]; 2.5 and 5.0 mg/kg i.p.,did not show any significant changes
same,spontaneous motor activity,BALB/c mice [5],without significant observable changes
same,inhibition of major serine hydrolases in vivo,major serine hydrolases,did not inhibit
